According to patent publication US10385080B2, “STAT6 inhibitors” (Board of Regents, The University of Texas System, priority 2013, dated 2019):
“Also recorded” adds a separate entry of the source.

Key:
[1] = system: asthma-related parameters; test: Dose effect on asthma-related parameters in fungus-challenged mice; format: in vivo; settings: fungus-challenged mice
Description: (§1) The issue of toxicity was addressed with the newer synthetic STAT6 peptidomimetic agents 86i and 43i in two ways. First, the inventors determined the effect of each inhibitor on asthma-related parameters in fungus-challenged mice. […] Second, the weights of mice were measured during challenge with the different doses of both STAT6 inhibitors.
(§2) Mice were challenged intranasally with a clinical isolate of 4×10^5 A. niger conidia every two days for a total of 8 challenges and treated with 50 μg of the indicated β-agonist, liposome vehicle (DLPC) and/or PM-242H (5 or 50 μg) intranasally as indicated and the allergic airway disease phenotype was determined according to previously described methods (Porter, P. et al. 2009).
(§3) Allergic airway disease was assessed as previously described (Porter, P. et al. 2009). Changes in respiratory system resistance (RRS) in response to intravenous acetylcholine challenge, bronchoalveolar lavage (BAL) fluid differential counts, and analysis of lung IL-4, IL-17A and IFN-γ producing cells by enzyme linked immunocell spot assay (ELISpot) were performed as previously described (Lee, S. H. et al. 2003; Polikepahad, S. et al. 2010).

allergic airway disease = test: Allergic lung disease reversal model (A. niger spores, treatment of established disease); format: in vivo, mice
Description: FIG. 17A, Mice are treated intranasally with 400,000 Aspergillus niger conidia every other day. After two weeks A. niger conidia are administered with either DLPC or DLPC/PM-43I. Airway hyperresponsiveness is measured at week 2, 3, and 4. FIG. 17B, Airway hyperrepsonsiveness induced by acetylcholine is revered by treatment with PM-43I.
In separate experiments wild type C57BL/6 mice were challenged with the spores of A. niger for two weeks after which the inventors began to give PM-242H intranasally at 50 micrograms per dose at the time of continued fungal challenge for an additional two weeks (FIG. 13A).
as §2, §3
Lungs were perfused of blood by cannulating the pulmonary artery and injecting ice cold PBS until lavage returning via the left atrium was clear. Lungs were then inflated via the trachea with 10% formalin at 25 cm water pressure and the tracheas were tied off prior to removal of the cardiopulmonary unit en bloc submerging in 10% formalin overnight. Fixed lungs were then divided into individual lobes that were then halved and embedded in paraffin. Lung sections were cut at 5 microns and stained with the periodic acid-Schiff (PAS) kit (395B; Sigma-Aldrich, St. Louis, Mo.).

Stat5 = test: Selectivity: Stat5 phosphorylation in EGF-stimulated MDA-MB-468 cells; format: cell-based; settings: serum starved MDA-MB-468 cells, 2 hr
Description: (§4) Compounds were screened at 5 μM for their ability to inhibit IL-4 stimulated phosphorylation of STAT6 in Beas-2B immortalized human airway cells. Cells were treated with prodrug for 2 hr and then stimulated with IL-4. After 30 min cells were lysed and pSTAT6 and total STAT6 were measured with western blots (FIG. 7). Without being bound by theory, the inhibition observed is consistent with compounds entering cells, being stripped of the POM groups, binding to the SH2 domain of STAT6, blocking binding to IL-4Rα and preventing phosphorylation of Tyr641. […] Compounds resulting in <10% residual phosphorylation were taken on to MTS cytotoxicity assays and dose response assays. (FIG. 8). The cyclic aromatic amides PM-63I, PM-80I, PM-81I, and PM-86I were very potent with IC50 values from 50-500 nM. […] With the exception of PM-43I, concentrations that inhibit STAT6 phosphorylation are 20-100 fold lower than those resulting in toxicity. STAT6 inhibitors were assayed for their ability to inhibit the phosphorylation of STAT 1, STAT 3, STAT 5, Akt, and FAK, all processes that depend on SH2 domain-phosphotyrosine interactions (Mandal, P. K. et al. 2011). Serum starved MDA-MB-468 breast cancer cells were treated with STAT6 inhibitors for 2 hr and then were stimulated with EGF (See FIGS. 9A and 9B).

[2] = Toxicity: weights of mice during challenge with different doses; format: in vivo; settings: highest dose of 50 micrograms
Description: as §1

STAT6 [3] = target: T1, STAT6 (Homo sapiens, UniProt P42226); test: Inhibition of IL-4 (and IL-13) stimulated phosphorylation of STAT6 in Beas-2B cells, western blot; format: cell-based; set-up: endogenous in cells; host or cells: Beas-2B immortalized human airway cells; settings: dose response
T1 sequence (P42226 1-847): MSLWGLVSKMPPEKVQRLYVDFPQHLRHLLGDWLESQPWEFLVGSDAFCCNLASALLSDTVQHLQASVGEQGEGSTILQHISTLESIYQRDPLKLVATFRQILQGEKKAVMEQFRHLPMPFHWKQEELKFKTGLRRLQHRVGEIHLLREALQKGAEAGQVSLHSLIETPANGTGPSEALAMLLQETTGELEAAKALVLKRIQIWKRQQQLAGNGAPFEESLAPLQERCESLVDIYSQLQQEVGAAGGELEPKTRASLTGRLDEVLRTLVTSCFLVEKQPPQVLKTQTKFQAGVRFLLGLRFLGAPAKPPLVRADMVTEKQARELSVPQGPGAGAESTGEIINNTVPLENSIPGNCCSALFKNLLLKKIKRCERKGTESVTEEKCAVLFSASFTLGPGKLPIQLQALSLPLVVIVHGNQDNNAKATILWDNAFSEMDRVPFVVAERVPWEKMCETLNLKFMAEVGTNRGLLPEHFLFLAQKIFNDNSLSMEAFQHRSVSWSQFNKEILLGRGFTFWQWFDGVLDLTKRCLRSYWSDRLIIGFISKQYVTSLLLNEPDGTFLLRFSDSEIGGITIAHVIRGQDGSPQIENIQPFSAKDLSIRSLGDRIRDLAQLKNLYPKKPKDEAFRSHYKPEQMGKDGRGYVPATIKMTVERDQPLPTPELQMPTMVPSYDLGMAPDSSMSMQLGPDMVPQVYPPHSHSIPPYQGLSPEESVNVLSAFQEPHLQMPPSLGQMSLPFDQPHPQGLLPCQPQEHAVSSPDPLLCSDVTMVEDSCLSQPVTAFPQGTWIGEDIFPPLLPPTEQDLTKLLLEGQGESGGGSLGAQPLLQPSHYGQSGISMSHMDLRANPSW
Description: Compound PM-241H inhibited the phosphorylation of Tyr641 of STAT6 in Beas-2B cells stimulated with IL-4 and IL-13.
as §4
(§5) Cells or lungs were isolated and lysed in RIPA buffer (9806S; Cell Signaling, Danvers, Mass.), protein was quantified using BCA Protein Assay Reagent (23227; Thermo Fisher Scientific, Rockford, Ill.) and denatured in Laemmli sample buffer (161-0737; Bio-Rad, Hercules, Calif.) according to manufacturer's protocol. Proteins were separated on SDS-Page gels were hand-poured using a standard electrophoresis unit (Bio-Rad, Hecules, Calif.) and transferred to a membrane using iBlot Gel Transfer Device (IB 1001; Invitrogen, Grand Island, N.Y.). Membranes were blocked in 2% FBS PBST and probed for c-Src, p-c-Src, pErk1/2, Erk1/2, p STAT6, STAT6, pSTAT3, STAT3, pSTAT5, STAT5, Shp-1, and β-actin. Signal was detected with a ChemiDoc XRS+ system (BioRad; Hercules, Calif.).

Th1, Th2, Th17 cells = test: Th cell development: ovalbumin restimulation ELISpot of splenocytes from ovalbumin/alum immunized mice; format: in vivo
Description: The ability of PM-242H to inhibit the development of major T helper effector subsets (Th1, Th2, Th17 cells) at the time of allergen exposure was tested. For these experiments, mice were immunized with chicken egg ovalbumin precipitated in alum over two weeks and then challenged intranasally with the spores of the fungus Aspergillus niger (AN) together with alum-free ovalbumin. The inventors prepared single cell suspensions of splenocytes from these same mice and stimulated the T cells in these preparations with ovalbumin to determine the precise number of antigen-specific Th1, Th2 and Th17 cells that developed. […] In summary, treatment of mice with PM-242H suppressed the development of Th2 and Th17, but not Th1 cells. These findings are entirely consistent with the known properties of STAT6, but in addition indicate that STAT6 may be involved with the production of Th17 cells.
(§6) Mice were sensitized to ovalbumin precipitated in alum as described in FIG. 3 (Corry, D. B. et al. 1996). In brief, mice were vaccinated intraperitoneally weekly with ovalbumin/alum together with PM-242H (50 or 250 μg) or liposome vehicle (DLPC) for 2 consecutive weeks and allowed to rest for 1 week. Mice were then intranasally challenged with ovalbumin (1 mg/mL in PBS; A5503, Sigma-Aldrich) and 4×10^5A. niger conidia for 5 consecutive days after which the allergic airway disease phenotype was assessed. Randomization was not used to assign mice to specific treatment groups. Investigators were blind as to mouse genotype and treatment during data collection.
Splenocytes from the indicated challenge groups of naïve and sensitized mice were assessed for antigen-specific recall cytokine responses by ELISpot. In brief, spleens were removed post mortem, de-aggregated by pressing through 40 μm nylon mesh and the red blood cells were removed from resulting cell suspension by hypotonic lysis. The splenocytes were then washed twice and cultured in flat-bottom wells of 96-well microtiter plates that were pre-coated with capture antibodies to IL-4, interferon gamma (IFN-γ) and IL-17A. Splenocytes were added in duplicate cultures of 0.5×10^6 cells/well that were then diluted serially two-fold to 0.015×10^6 cells/well. Cells were cultured in the presence of media or whole ovalbumin (1 mg/mL) overnight and plates were developed as previously described (Kheradmand, F. et al. 2002).

allergic lung disease = test: Allergic lung disease induction model (ovalbumin/alum immunization, ovalbumin and A. niger challenge); format: in vivo, mice
Description: The same model as described in part E was used to determine the effect of PH-242H on the induction of allergic lung disease. Mice that were immunized with ovalbumin and challenged intranasally with ovalbumin and A. niger spores developed AHR as determined by a shift to the left of the acetylcholine (Ach) dose response curve as compared to PBS challenged animals. Enzyme linked immunocell spot (ELISpot) assays were then performed on whole lung homogenates, assaying for IL-4, gamma interferon (IFN-γ) and IL-17A-secreting cells.
as §6, §3

STAT6 [4] = test: STAT6 phosphorylation in vitro and in vivo (summary statement)
Source text: The synthesized PM-242H compound was advanced to in vivo studies. PM-242H was formulated as simple dilauroylphosphatidyl-choline liposomes and applied by intranasal administration. […] These findings with PM-242H in vivo and in vitro are entirely consistent with and explained by its ability to inhibit selectively STAT6.
as §5

[5] = A. niger conidia, DLPC/PM-43I after two weeks
[6] = splenocytes restimulated with ovalbumin
[7] = intranasal 50 micrograms per dose during established disease
[8] = ELISpot on whole lung homogenates

## CC(=CC(=O)NC1CCCCN(CC(=O)N(C)c2ccccc2)C1=O)c1ccc(C(F)(F)P(=O)(OCOC(=O)C(C)(C)C)OCOC(=O)C(C)(C)C)cc1 (stereo not shown) [PM-43I]
[1]
  maximally effective dose: 0.5 micrograms
Allergic airway disease; A. niger conidia every other day, DLPC/PM-43I after two weeks
  established allergic airway disease: reverses established allergic airway disease
Allergic airway disease; [5]
  immune cell recruitment: does not significantly affect
  lung immune response to A. niger infection: does in inhibit
Allergic airway disease; A. niger conidia, DLPC/PM-43I after two weeks, weeks 2, 3, 4
  airway hyperresponsiveness induced by acetylcholine: revered
Stat5
  cross reactivity with Stat5: significant cross reactivity
[2]
  weight gain: reduction in weight gain
STAT6 [3]
  IC50: 1000 to 2500 nM

## CC(C)(C)C(=O)OCOP(=O)(OCOC(=O)C(C)(C)C)C(F)(F)c1ccc(/C=C/C(=O)NC(C(=O)N2CCCC2C(=O)N(c2ccccc2)c2ccc(-c3ccccc3)cc2)C(C)(C)C)cc1 (stereo not shown) [PM-242H]
Th1, Th2, Th17 cells; FIGS. 11A-H legend
  effect on Th cells: inhibits Th cells
Th1, Th2, Th17 cells; [6]
  Th1 (IFN-γ)-secreting cells: unaffected
  development of Th2 (IL-4-producing) T cells: failed to develop
  development of Th17 (IL-17A-producing) T cells: failed to develop
Allergic airway disease; C57BL/6 mice, intranasal 50 micrograms per dose during established disease
  airway hyperresponsiveness: abrogation of airway hyperresponsiveness; also recorded: promotes recovery from airway hyperresponsiveness
Allergic airway disease; FIGS. 13A-F legend
  mucus production: inhibition of mucus production
Allergic airway disease; [7]
  goblet cell metaplasia (periodic acid-Schiff staining): reduction in goblet cell metaplasia
  lung and airway inflammation: did not, however, attenuate
  number of airway eosinophils: increased
  number of lung IL-17A-secreting cells: increased
Allergic lung disease; [8]
  IL-17A-secreting cells in lungs: significantly suppressed
  ratio between IL-4 and IFN-γ-secreting cells in lungs: significantly suppressed
Allergic lung disease; FIG. 12 legend
  development of allergic lung disease: blocks the development of allergic lung disease
STAT6 [4]
  STAT6 phosphorylation both in vitro and in vivo: inhibit
